Measured values taken from patent publication US20150250810A1, “D-TAGATOSE-BASED COMPOSITIONS AND METHODS FOR PREVENTING AND TREATING ATHEROSCLEROSIS, METABOLIC SYNDROME, AND SYMPTOMS THEREOF” (University of Kentucky Research Foundation, priority 2008, published 2015).

Tests used:
LDLr-/- mice [1] = assay: Serum cholesterol, triglyceride and lipoprotein concentrations in diet-fed mice (enzymatic assay kits); format: in vivo; details: for total serum triglyceride concentration: end of study; for very low density lipoprotein and LDL cholesterol concentrations / total serum cholesterol concentration: male and female mice; for very low density lipoprotein and LDL cholesterol concentrations: compared to control mice; for total serum cholesterol concentration: sucrose vs standard murine and TAG diets, TAG vs sucrose-fed
Source text: Low-density lipoprotein receptor male and female mice (LDLr^-/-) that were approximately eight weeks old were fed either a standard murine diet (“control”), a diet enriched with sucrose, or a diet enriched with TAG for sixteen weeks. The diets enriched with sucrose or TAG contained equivalents amounts (g/kg) of protein, fat and carbohydrate, although due to the differences in energy content between sucrose (˜4.0 kcal/g) and TAG (˜1.5 kcal/g), the TAG-containing diet provided relatively more calories from fat and protein. Before the sixteen week feeding period, sucrose and TAG were introduced to the experimental mice gradually over a three week period, using an increasing ratio of sucrose or TAG diet to the standard murine diet.
Total serum cholesterol and plasma triglyceride concentrations were determined for the individual mice at the end of the study using enzymatic assay kits (Wako Pure Chemical, Richmond, Va.).

LDLr-/- mice [2] = assay: Atherosclerosis by en face lesion surface area, immunohistochemistry, infrared microscopy and Gomori Trichome staining; format: in vivo; details: for concentration of lipids in atherosclerotic lesions: infrared microscopy of aortic lesions
Source text: Low-density lipoprotein receptor male and female mice (LDLr^-/-) that were approximately eight weeks old were fed either a standard murine diet (“control”), a diet enriched with sucrose, or a diet enriched with TAG for sixteen weeks. The diets enriched with sucrose or TAG contained equivalents amounts (g/kg) of protein, fat and carbohydrate, although due to the differences in energy content between sucrose (˜4.0 kcal/g) and TAG (˜1.5 kcal/g), the TAG-containing diet provided relatively more calories from fat and protein. Before the sixteen week feeding period, sucrose and TAG were introduced to the experimental mice gradually over a three week period, using an increasing ratio of sucrose or TAG diet to the standard murine diet. At the study end point, mice were exsanguinated by perfusion through the left ventricle. Aortic tissues from the heart to the […] bifurcation were dissected and fixed overnight in 4% paraformaldehyde made with phosphate buffered solution (“PBS”) and then stored in PBS. Atherosclerosis was quantified by en face analysis of lesion surface area as detailed in Henriques, T A, et al., “Orchidectomy, but not ovariectomy, regulates angiotensin II-induced vascular diseases in apolipoprotein E-deficient mice,” Endocrinology, 145: 3866-3872 (2004). Atherosclerotic lesions were quantified by two independent observers. […] Macrophage infiltration into atherosclerotic areas was assessed using immunohistochemistry staining. […] Collagen may strengthen the fibrous caps in lipid-filled atheromas, preventing rupture.

LDLr-/- mice [3] = assay: Body weight and adipose tissue characteristics in hypercholesterolemic mice fed sucrose- or TAG-enriched diet for sixteen weeks; format: in vivo; details: for macrophage positive F4/80 immunostaining in adipose sections / adipocyte size: study end point; for body weight: enriched diet, sixteen weeks; for development of obesity (weight gain, adiposity, adipocyte hypertrophy): overall study conclusion
Source text: Low-density lipoprotein receptor male and female mice (LDLr^-/-) that were approximately eight weeks old were fed either a standard murine diet (“control”), a diet enriched with sucrose, or a diet enriched with TAG for sixteen weeks. The diets enriched with sucrose or TAG contained equivalents amounts (g/kg) of protein, fat and carbohydrate, although due to the differences in energy content between sucrose (˜4.0 kcal/g) and TAG (˜1.5 kcal/g), the TAG-containing diet provided relatively more calories from fat and protein. Before the sixteen week feeding period, sucrose and TAG were introduced to the experimental mice gradually over a three week period, using an increasing ratio of sucrose or TAG diet to the standard murine diet. Food intake was measured for the first four weeks of the sixteen week period and the body weight of the mice was measured weekly. […] At the study end point, retroperitoneal and epidydimal fat was dissected out of the body and stored in formalin and subsequently embedded in paraffin for examination of morphology and immunostaining. Total adipose tissue mass was increased in both male and female mice fed the diet enriched with sucrose when compared to mice fed murine or TAG-enriched diets. For characterization of adipocyte morphology, adipose tissue sections were deparrafinized and stained using hematoxylin and eosin and then analyzed using Image Pro Plus 5.1 (Media Cybernetics, Silver Spring, Md.). […] Macrophage positive F4/80 immunostaining was detected in adipose section from mice fed a sucrose-enriched diet but not in those fed standard murine or TAG-enriched diets.

[4] = tested on: human patients with type 2 diabetes; assay: Six-month oral TAG dosing study, HbA1c, serum triglycerides, LDL and HDL; format: in vivo; details: for average reduction in serum triglycerides / average reduction in HbA1c from the HbA1c of the 2.5 g group: after six months; for decrease in average serum triglycerides from baseline: all TAG-consuming patients
Experimental: Thirty-eight human patients with type 2 diabetes were administered one of three concentrations of TAG orally with meals. […] The treatment duration was six months and patients were randomized to one of the three doses. […] Patients also had to go through an eight week run-in period in which they were on a weight-maintaining diet and a daily exercise program under the supervision of the investigator prior to receiving their TAG dose. Patients with a current or recent history of treatment with any oral or injectable anti-diabetic treatment, as well as patients having one or more episodes of severe hypoglycemia within six months prior to entry into the study, were excluded from the study. Blood samples were taken throughout the experiment and levels of HbAc1, serum triglycerides, LDLs and HDLs were measured.

[5] = humans; cited from earlier work

## O=C(CO)[C@@H](O)[C@@H](O)[C@H](O)CO [TAG, (3S,4S,5R)-1,3,4,5,6-pentahydroxy-hexan-2-one]
LDLr-/- mice [1]; female mice
  total serum triglyceride concentration: 54 ± 8 mg/dL
LDLr-/- mice [1]
  very low density lipoprotein and LDL cholesterol concentrations: only slightly elevated
  total serum cholesterol concentration: decreased
LDLr-/- mice [1]; male mice
  total serum triglyceride concentration: 162 ± 29 mg/dL
LDLr-/- mice [2]; Gomori Trichome staining, compared to sucrose-fed mice
  concentration of collagen in atherosclerotic lesions: higher concentration
LDLr-/- mice [2]; female mice
  rate of atherosclerosis compared to control mice: slightly higher
LDLr-/- mice [2]
  concentration of lipids in atherosclerotic lesions: intermediate amount
LDLr-/- mice [2]; male mice
  amount of atherosclerosis compared to control mice: did not exhibit a significantly different amount
LDLr-/- mice [3]
  macrophage positive F4/80 immunostaining in adipose sections: not
  development of obesity (weight gain, adiposity, adipocyte hypertrophy): did not promote substantial weight gain, enhanced adiposity or adipocyte hypertrophy
LDLr-/- mice [3]; female LDLr-/- mice
  body weight: 24 ± 1 g
LDLr-/- mice [3]; female mice
  adipocyte size: 31±1 μm
LDLr-/- mice [3]; male LDLr-/- mice
  body weight: 27 ± 0 g
LDLr-/- mice [3]; male mice
  adipocyte size: 79±3 μm
[4]; 2.5 g and 5 g groups
  average improvement of LDL:HDL ratio: 0.3
[4]; 2.5 g group
  average reduction in serum triglycerides: 22.2 mg/dL
[4]; 2.5 g group, end of the first month
  decrease in LDL levels: about 12.3 mg/dl
[4]; 5 g group
  average reduction in HbA1c from the HbA1c of the 2.5 g group: 0.05%
  average reduction in serum triglycerides: 96.8 mg/dL
[4]; 5 g group, end of the first month
  decrease in LDL levels: about 23.8 mg/dl
[4]; 7.5 g group
  average reduction in HbA1c from the HbA1c of the 2.5 g group: 0.3%
  average reduction in serum triglycerides: 2.8 mg/dL
[4]; end of six months
  decrease in average serum triglycerides from baseline: about 41 mg/dl
[4]; end of the first month
  decrease in average serum triglycerides from baseline: about 59 mg/dl
  serum HDL change: essentially unchanged
[4]; all patients, end of the first month
  average decrease in serum LDL: about 13 mg/dl
[5]
  fraction of ingested substance absorbed into the bloodstream: about 25%

## OC[C@H]1O[C@@](CO)(O[C@H]2O[C@H](CO)[C@@H](O)[C@H](O)[C@H]2O)[C@@H](O)[C@@H]1O [sucrose, reference compound]
LDLr-/- mice [1]; female mice
  total serum triglyceride concentration: 326 ± 37 mg/dL
LDLr-/- mice [1]
  very low density lipoprotein and LDL cholesterol concentrations: significantly elevated
  total serum cholesterol concentration: markedly increased
LDLr-/- mice [1]; male mice
  total serum triglyceride concentration: 822 ± 148 mg/dL
LDLr-/- mice [2]; immunohistochemistry, compared to TAG-fed mice
  macrophage infiltration and lesion size in aortic roots: larger degree of macrophage infiltration and larger lesions
LDLr-/- mice [2]
  concentration of lipids in atherosclerotic lesions: highest concentration
LDLr-/- mice [2]; male and female mice, compared to TAG-fed mice
  number and size of atherosclerotic lesions in aortic roots: greater number and size
LDLr-/- mice [2]; male and female mice, compared to control and TAG-enriched diet
  atherosclerotic surface area: striking increase
LDLr-/- mice [3]
  macrophage positive F4/80 immunostaining in adipose sections: detected
  development of obesity (weight gain, adiposity, adipocyte hypertrophy): promotes the development of obesity
LDLr-/- mice [3]; female LDLr-/- mice
  body weight: 31 ± 1 g
LDLr-/- mice [3]; female mice
  adipocyte size: 50±1 μm
LDLr-/- mice [3]; male LDLr-/- mice
  body weight: 40 ± 2 g
LDLr-/- mice [3]; male and female mice, compared to murine or TAG-enriched diets
  total adipose tissue mass: increased
LDLr-/- mice [3]; male mice
  adipocyte size: 83±3 μm
